Results as given in PubChem BioAssay (NCI).
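Dose response: 5 concentrations. Exposure: 48 h. Format: 96-well plates. Endpoint: linear interpolation; highest concentration if not reached. GI50 is the concentration that inhibits growth by half. Definition used: TGI = concentration required for complete inhibition of growth.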

Key:
Assay in all cases: DTP human tumour cell line panel, 48 h
RPMI-8226 leukemia = test system: RPMI-8226 leukemia
OVCAR-8 ovarian = test system: OVCAR-8 ovarian
A549 NSCLC = test system: A549 NSCLC
MALME-3M melanoma = test system: MALME-3M melanoma
NCI-H460 lung = test system: NCI-H460 lung
NCI-H522 lung = test system: NCI-H522 lung
HT29 colon = test system: HT29 colon
KM12 colon = test system: KM12 colon
TK-10 renal = test system: TK-10 renal
HCT-116 colon = test system: HCT-116 colon
NCI-H23 lung = test system: NCI-H23 lung
HCT-15 colon = test system: HCT-15 colon
SK-MEL-5 melanoma = test system: SK-MEL-5 melanoma
HCC-2998 colon = test system: HCC-2998 colon
CCRF-CEM leukemia = test system: CCRF-CEM leukemia
UACC-257 melanoma = test system: UACC-257 melanoma
HL-60(TB) leukemia = test system: HL-60(TB) leukemia
SW-620 colon = test system: SW-620 colon
HOP-62 NSCLC = test system: HOP-62 NSCLC
SF-295 CNS = test system: SF-295 CNS
NCI-H226 lung = test system: NCI-H226 lung
SN12C renal = test system: SN12C renal
SNB-75 CNS = test system: SNB-75 CNS
SF-268 CNS = test system: SF-268 CNS
MCF7 breast = test system: MCF7 breast
SK-MEL-28 melanoma = test system: SK-MEL-28 melanoma
786-0 renal = test system: 786-0 renal
OVCAR-3 ovarian = test system: OVCAR-3 ovarian
OVCAR-5 ovarian = test system: OVCAR-5 ovarian
MOLT-4 leukemia = test system: MOLT-4 leukemia
U251 CNS = test system: U251 CNS
K-562 leukemia = test system: K-562 leukemia
SK-MEL-2 melanoma = test system: SK-MEL-2 melanoma
PC-3 prostate = test system: PC-3 prostate
HS 578T breast = test system: HS 578T breast
SR leukemia = test system: SR leukemia
SF-539 CNS = test system: SF-539 CNS
M14 melanoma = test system: M14 melanoma
SNB-19 CNS = test system: SNB-19 CNS
NCI/ADR-RES ovarian = test system: NCI/ADR-RES ovarian
RXF 393 renal = test system: RXF 393 renal
COLO 205 colon = test system: COLO 205 colon
SK-OV-3 ovarian = test system: SK-OV-3 ovarian
ACHN renal = test system: ACHN renal
DU-145 prostate = test system: DU-145 prostate
EKVX NSCLC = test system: EKVX NSCLC
T-47D breast = test system: T-47D breast
UACC-62 melanoma = test system: UACC-62 melanoma
HOP-92 NSCLC = test system: HOP-92 NSCLC
UO-31 renal = test system: UO-31 renal
CAKI-1 renal = test system: CAKI-1 renal
LOX IMVI melanoma = test system: LOX IMVI melanoma
IGROV1 ovarian = test system: IGROV1 ovarian
MDA-MB-435 = test system: MDA-MB-435
BT-549 breast = test system: BT-549 breast
OVCAR-4 ovarian = test system: OVCAR-4 ovarian
MDA-MB-231 breast = test system: MDA-MB-231 breast
A498 renal = test system: A498 renal

## Cc1ncc([N+](=O)[O-])n1CCNCCCn1ccnc1[N+](=O)[O-]
RPMI-8226 leukemia
  TGI: > 100 µM
OVCAR-8 ovarian
  TGI: > 100 µM
A549 NSCLC
  TGI: > 100 µM
MALME-3M melanoma
  TGI: > 100 µM
NCI-H460 lung
  TGI: > 100 µM
NCI-H522 lung
  TGI: > 100 µM
HT29 colon
  TGI: > 100 µM
KM12 colon
  TGI: > 100 µM
TK-10 renal
  TGI: > 100 µM
HCT-116 colon
  TGI: > 100 µM
NCI-H23 lung
  TGI: > 100 µM
HCT-15 colon
  TGI: > 100 µM
SK-MEL-5 melanoma
  TGI: > 100 µM
HCC-2998 colon
  TGI: > 100 µM
CCRF-CEM leukemia
  TGI: > 100 µM
UACC-257 melanoma
  TGI: > 100 µM
HL-60(TB) leukemia
  TGI: > 100 µM
SW-620 colon
  TGI: > 100 µM
HOP-62 NSCLC
  TGI: > 100 µM
SF-295 CNS
  TGI: > 100 µM
NCI-H226 lung
  TGI: > 100 µM
SN12C renal
  TGI: > 100 µM
SNB-75 CNS
  TGI: > 100 µM
SF-268 CNS
  TGI: > 100 µM
MCF7 breast
  TGI: > 100 µM
SK-MEL-28 melanoma
  TGI: > 100 µM
786-0 renal
  TGI: > 100 µM
OVCAR-3 ovarian
  TGI: > 100 µM
OVCAR-5 ovarian
  TGI: > 100 µM
MOLT-4 leukemia
  TGI: > 100 µM
U251 CNS
  TGI: > 100 µM
K-562 leukemia
  TGI: > 100 µM
SK-MEL-2 melanoma
  TGI: > 100 µM
PC-3 prostate
  TGI: > 100 µM
HS 578T breast
  TGI: > 100 µM
SR leukemia
  TGI: > 100 µM
SF-539 CNS
  TGI: > 100 µM

## CCCNC(=O)c1ccc(Cl)cc1Cl
OVCAR-8 ovarian
  GI50: > 100 µM
  TGI: > 100 µM
A549 NSCLC
  GI50: > 100 µM
  TGI: > 100 µM
MALME-3M melanoma
  GI50: > 100 µM
  TGI: > 100 µM
NCI-H460 lung
  GI50: > 100 µM
  TGI: > 100 µM
HT29 colon
  GI50: > 100 µM
  TGI: > 100 µM
KM12 colon
  GI50: > 100 µM
  TGI: > 100 µM
M14 melanoma
  GI50: > 100 µM
  TGI: > 100 µM
TK-10 renal
  GI50: > 100 µM
  TGI: > 100 µM
SNB-19 CNS
  GI50: > 100 µM
  TGI: > 100 µM
NCI/ADR-RES ovarian
  GI50: > 100 µM
  TGI: > 100 µM
HCT-116 colon
  GI50: > 100 µM
  TGI: > 100 µM
NCI-H23 lung
  GI50: > 100 µM
  TGI: > 100 µM
RXF 393 renal
  GI50: > 100 µM
  TGI: > 100 µM
COLO 205 colon
  GI50: > 100 µM
  TGI: > 100 µM
SK-OV-3 ovarian
  GI50: > 100 µM
  TGI: > 100 µM
HCT-15 colon
  GI50: > 100 µM
  TGI: > 100 µM
ACHN renal
  GI50: > 100 µM
  TGI: > 100 µM
DU-145 prostate
  GI50: > 100 µM
  TGI: > 100 µM
SK-MEL-5 melanoma
  GI50: > 100 µM
  TGI: > 100 µM
EKVX NSCLC
  GI50: > 100 µM
  TGI: > 100 µM
T-47D breast
  GI50: > 100 µM
  TGI: > 100 µM
UACC-257 melanoma
  GI50: > 100 µM
  TGI: > 100 µM
HL-60(TB) leukemia
  GI50: > 100 µM
  TGI: > 100 µM
SW-620 colon
  GI50: > 100 µM
  TGI: > 100 µM
UACC-62 melanoma
  GI50: > 100 µM
  TGI: > 100 µM
HOP-92 NSCLC
  GI50: > 100 µM
  TGI: > 100 µM
HOP-62 NSCLC
  GI50: > 100 µM
  TGI: > 100 µM
UO-31 renal
  GI50: > 100 µM
  TGI: > 100 µM
CAKI-1 renal
  GI50: > 100 µM
  TGI: > 100 µM
SF-295 CNS
  GI50: > 100 µM
  TGI: > 100 µM
LOX IMVI melanoma
  GI50: > 100 µM
  TGI: > 100 µM
NCI-H226 lung
  GI50: > 100 µM
  TGI: > 100 µM
SN12C renal
  GI50: > 100 µM
  TGI: > 100 µM
SNB-75 CNS
  GI50: > 100 µM
  TGI: > 100 µM
IGROV1 ovarian
  GI50: > 100 µM
  TGI: > 100 µM
SF-268 CNS
  GI50: > 100 µM
  TGI: > 100 µM
MCF7 breast
  GI50: > 100 µM
  TGI: > 100 µM
SK-MEL-28 melanoma
  GI50: > 100 µM
  TGI: > 100 µM
786-0 renal
  GI50: > 100 µM
  TGI: > 100 µM
OVCAR-3 ovarian
  GI50: > 100 µM
  TGI: > 100 µM
OVCAR-5 ovarian
  GI50: > 100 µM
  TGI: > 100 µM
MOLT-4 leukemia
  GI50: > 100 µM
  TGI: > 100 µM
U251 CNS
  GI50: > 100 µM
  TGI: > 100 µM
K-562 leukemia
  GI50: > 100 µM
  TGI: > 100 µM
SK-MEL-2 melanoma
  GI50: > 100 µM
  TGI: > 100 µM
PC-3 prostate
  GI50: > 100 µM
  TGI: > 100 µM
MDA-MB-435
  GI50: > 100 µM
  TGI: > 100 µM
BT-549 breast
  GI50: > 100 µM
  TGI: > 100 µM
SR leukemia
  GI50: > 100 µM
  TGI: > 100 µM
OVCAR-4 ovarian
  GI50: > 100 µM
  TGI: > 100 µM
SF-539 CNS
  GI50: > 100 µM
  TGI: > 100 µM
MDA-MB-231 breast
  GI50: > 100 µM
  TGI: > 100 µM

## OCCNCCCOc1ccc2ncnc(Nc3ccc(Oc4cccc(C(F)(F)F)c4)c(Cl)c3)c2c1
RPMI-8226 leukemia
  GI50: 1.51 µM
  TGI: 4.1 µM
OVCAR-8 ovarian
  GI50: 2.24 µM
  TGI: 5.83 µM
MALME-3M melanoma
  GI50: 1.66 µM
  TGI: 3.24 µM
NCI-H460 lung
  GI50: 1.73 µM
  TGI: 3.31 µM
KM12 colon
  GI50: 1.77 µM
  TGI: 3.26 µM
TK-10 renal
  GI50: 1.13 µM
  TGI: 2.54 µM
NCI/ADR-RES ovarian
  GI50: 2.65 µM
  TGI: 9.3 µM
NCI-H23 lung
  GI50: 1.63 µM
  TGI: 3.13 µM
HCT-15 colon
  GI50: 1.54 µM
  TGI: 3.01 µM
ACHN renal
  GI50: 1.09 µM
  TGI: 2.28 µM
DU-145 prostate
  GI50: 1.33 µM
  TGI: 2.66 µM
A498 renal
  GI50: 1.72 µM
  TGI: 5.29 µM
EKVX NSCLC
  GI50: 1.24 µM
  TGI: 2.76 µM
HCC-2998 colon
  GI50: 1.64 µM
  TGI: 3.1 µM
CCRF-CEM leukemia
  GI50: 1.66 µM
  TGI: 4.42 µM
SW-620 colon
  GI50: 1.76 µM
  TGI: 3.38 µM
UACC-62 melanoma
  GI50: 1.79 µM
  TGI: 3.31 µM
HOP-92 NSCLC
  GI50: 1.05 µM
  TGI: 2.37 µM
UO-31 renal
  GI50: 1.29 µM
  TGI: 2.57 µM
CAKI-1 renal
  GI50: 2.99 µM
  TGI: 11.6 µM
SF-295 CNS
  GI50: 1.79 µM
  TGI: 3.24 µM
LOX IMVI melanoma
  GI50: 1.71 µM
  TGI: 3.15 µM
SN12C renal
  GI50: 1.43 µM
  TGI: 2.83 µM
SNB-75 CNS
  GI50: 1.48 µM
  TGI: 2.86 µM
IGROV1 ovarian
  GI50: 0.584 µM
  TGI: 2.14 µM
SK-MEL-28 melanoma
  GI50: 1.75 µM
  TGI: 3.21 µM
786-0 renal
  GI50: 1.62 µM
  TGI: 3.03 µM
OVCAR-3 ovarian
  GI50: 1.5 µM
  TGI: 2.92 µM
OVCAR-5 ovarian
  GI50: 1.65 µM
  TGI: 3.24 µM
K-562 leukemia
  GI50: 1.79 µM
  TGI: 4.48 µM
SK-MEL-2 melanoma
  GI50: 1.7 µM
  TGI: 3.38 µM
PC-3 prostate
  GI50: 1.66 µM
  TGI: 3.21 µM
MDA-MB-435
  GI50: 1.72 µM
  TGI: 3.21 µM
BT-549 breast
  GI50: 1.82 µM
  TGI: 4.25 µM
SR leukemia
  GI50: 1.62 µM
  TGI: 4.65 µM
SF-539 CNS
  GI50: 1.64 µM
  TGI: 3.07 µM
MDA-MB-231 breast
  GI50: 1.72 µM
  TGI: 3.2 µM
